Laboratory results reported in ChEMBL document CHEMBL1201862, “PubChem BioAssay data set” (2004).
Active and inactive are the calls of the source.

What was measured:
cells = assay type: functional
Exodeoxyribonuclease V = target: T1, Exodeoxyribonuclease V (Escherichia coli (strain K12), UniProt P04993+P07648+P08394); test: RecBCD inhibition via phage-restricted bacterial growth – absorbance, V66 E. coli, mutant T4 phage, counter-screen for AddAB inhibitor project, dose response (AID 492957); assay type: functional, cell-based, Escherichia coli str. K-12 substr. MG1655
T1 sequence (P04993 whole entry): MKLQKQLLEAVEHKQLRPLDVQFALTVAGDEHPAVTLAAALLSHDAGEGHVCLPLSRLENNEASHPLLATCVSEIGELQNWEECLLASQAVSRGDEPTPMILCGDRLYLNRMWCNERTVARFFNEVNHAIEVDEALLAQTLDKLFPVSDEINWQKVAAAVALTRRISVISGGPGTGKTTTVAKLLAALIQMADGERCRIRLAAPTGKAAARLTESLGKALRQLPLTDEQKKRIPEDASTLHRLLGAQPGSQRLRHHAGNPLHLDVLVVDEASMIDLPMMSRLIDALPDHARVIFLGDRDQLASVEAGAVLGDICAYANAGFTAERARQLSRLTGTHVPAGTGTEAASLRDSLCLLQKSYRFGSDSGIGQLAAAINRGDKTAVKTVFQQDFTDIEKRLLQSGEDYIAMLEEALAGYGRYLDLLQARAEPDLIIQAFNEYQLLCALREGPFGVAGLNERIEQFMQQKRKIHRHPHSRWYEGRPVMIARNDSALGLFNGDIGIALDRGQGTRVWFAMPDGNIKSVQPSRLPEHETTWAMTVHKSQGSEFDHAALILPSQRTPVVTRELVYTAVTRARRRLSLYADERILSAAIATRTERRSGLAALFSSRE
T1 sequence (P07648 whole entry): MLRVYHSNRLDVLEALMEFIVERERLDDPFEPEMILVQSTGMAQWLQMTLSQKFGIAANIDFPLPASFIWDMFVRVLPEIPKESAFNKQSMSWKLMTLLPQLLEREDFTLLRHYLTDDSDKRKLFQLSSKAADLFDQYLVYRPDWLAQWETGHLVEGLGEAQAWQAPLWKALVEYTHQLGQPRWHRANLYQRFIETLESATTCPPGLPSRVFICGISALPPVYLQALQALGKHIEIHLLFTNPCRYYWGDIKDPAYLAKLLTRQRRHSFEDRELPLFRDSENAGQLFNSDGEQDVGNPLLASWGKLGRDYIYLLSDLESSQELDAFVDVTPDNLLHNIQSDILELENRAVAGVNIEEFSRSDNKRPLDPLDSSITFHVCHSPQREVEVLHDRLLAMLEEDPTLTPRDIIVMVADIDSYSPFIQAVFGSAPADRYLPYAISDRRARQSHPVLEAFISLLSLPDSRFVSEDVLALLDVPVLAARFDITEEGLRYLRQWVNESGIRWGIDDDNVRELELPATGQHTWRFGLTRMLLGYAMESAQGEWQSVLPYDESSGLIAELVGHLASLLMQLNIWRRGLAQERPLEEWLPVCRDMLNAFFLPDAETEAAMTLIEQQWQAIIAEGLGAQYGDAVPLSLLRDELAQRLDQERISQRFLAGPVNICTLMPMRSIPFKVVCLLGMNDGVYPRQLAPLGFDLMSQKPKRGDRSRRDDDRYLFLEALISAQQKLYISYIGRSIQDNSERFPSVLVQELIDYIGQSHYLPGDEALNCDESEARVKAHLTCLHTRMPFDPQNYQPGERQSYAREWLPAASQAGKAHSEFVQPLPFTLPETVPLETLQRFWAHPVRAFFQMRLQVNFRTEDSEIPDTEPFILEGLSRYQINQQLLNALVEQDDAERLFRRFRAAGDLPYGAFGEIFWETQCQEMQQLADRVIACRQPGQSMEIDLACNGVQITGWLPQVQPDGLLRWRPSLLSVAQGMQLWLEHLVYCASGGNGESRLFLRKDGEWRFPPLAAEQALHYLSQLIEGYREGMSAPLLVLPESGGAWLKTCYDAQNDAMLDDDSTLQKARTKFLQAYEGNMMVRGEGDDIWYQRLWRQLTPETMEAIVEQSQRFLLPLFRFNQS
T1 sequence (P08394 whole entry): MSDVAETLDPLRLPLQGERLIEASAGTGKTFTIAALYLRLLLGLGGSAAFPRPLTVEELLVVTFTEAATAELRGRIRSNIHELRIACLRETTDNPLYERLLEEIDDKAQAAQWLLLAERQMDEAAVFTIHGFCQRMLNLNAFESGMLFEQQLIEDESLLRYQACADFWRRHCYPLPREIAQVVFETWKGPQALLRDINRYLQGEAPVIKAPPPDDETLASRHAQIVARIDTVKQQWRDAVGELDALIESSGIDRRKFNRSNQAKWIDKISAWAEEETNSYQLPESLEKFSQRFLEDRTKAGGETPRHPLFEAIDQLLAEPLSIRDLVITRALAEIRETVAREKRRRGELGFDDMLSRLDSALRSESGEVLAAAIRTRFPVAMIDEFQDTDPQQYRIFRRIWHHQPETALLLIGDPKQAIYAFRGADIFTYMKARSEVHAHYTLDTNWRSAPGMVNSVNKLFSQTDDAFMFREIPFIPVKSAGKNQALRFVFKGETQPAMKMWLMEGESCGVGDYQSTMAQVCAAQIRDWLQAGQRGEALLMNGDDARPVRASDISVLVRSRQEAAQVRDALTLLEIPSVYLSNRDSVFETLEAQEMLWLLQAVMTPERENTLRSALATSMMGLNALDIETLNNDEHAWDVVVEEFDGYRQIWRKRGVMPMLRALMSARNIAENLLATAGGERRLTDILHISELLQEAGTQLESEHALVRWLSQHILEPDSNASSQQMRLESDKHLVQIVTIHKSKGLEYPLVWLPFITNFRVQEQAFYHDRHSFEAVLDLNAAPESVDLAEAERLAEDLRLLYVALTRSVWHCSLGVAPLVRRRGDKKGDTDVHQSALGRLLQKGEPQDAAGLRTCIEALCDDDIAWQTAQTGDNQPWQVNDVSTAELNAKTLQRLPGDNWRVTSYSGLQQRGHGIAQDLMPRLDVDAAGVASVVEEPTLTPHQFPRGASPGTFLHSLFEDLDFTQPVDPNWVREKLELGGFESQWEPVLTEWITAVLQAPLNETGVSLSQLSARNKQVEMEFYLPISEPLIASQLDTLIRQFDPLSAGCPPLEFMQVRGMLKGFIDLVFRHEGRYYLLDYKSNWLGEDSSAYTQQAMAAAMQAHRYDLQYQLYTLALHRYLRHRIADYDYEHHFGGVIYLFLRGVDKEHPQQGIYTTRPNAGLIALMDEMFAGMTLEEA

[1] = target: 1-phosphatidylinositol 4,5-bisphosphate phosphodiesterase gamma-1 (Homo sapiens, UniProt P19174); test: Counterscreen for inhibitors of phospholipase C isozymes (PLC-B3): Fluorescence-based biochemical high throughput dose response assay to identify inhibitors of phospholipase C isozymes (PLC-gamma1).
1-phosphatidylinositol 4,5-bisphosphate phosphodiesterase gamma-1, sequence (P19174 whole entry): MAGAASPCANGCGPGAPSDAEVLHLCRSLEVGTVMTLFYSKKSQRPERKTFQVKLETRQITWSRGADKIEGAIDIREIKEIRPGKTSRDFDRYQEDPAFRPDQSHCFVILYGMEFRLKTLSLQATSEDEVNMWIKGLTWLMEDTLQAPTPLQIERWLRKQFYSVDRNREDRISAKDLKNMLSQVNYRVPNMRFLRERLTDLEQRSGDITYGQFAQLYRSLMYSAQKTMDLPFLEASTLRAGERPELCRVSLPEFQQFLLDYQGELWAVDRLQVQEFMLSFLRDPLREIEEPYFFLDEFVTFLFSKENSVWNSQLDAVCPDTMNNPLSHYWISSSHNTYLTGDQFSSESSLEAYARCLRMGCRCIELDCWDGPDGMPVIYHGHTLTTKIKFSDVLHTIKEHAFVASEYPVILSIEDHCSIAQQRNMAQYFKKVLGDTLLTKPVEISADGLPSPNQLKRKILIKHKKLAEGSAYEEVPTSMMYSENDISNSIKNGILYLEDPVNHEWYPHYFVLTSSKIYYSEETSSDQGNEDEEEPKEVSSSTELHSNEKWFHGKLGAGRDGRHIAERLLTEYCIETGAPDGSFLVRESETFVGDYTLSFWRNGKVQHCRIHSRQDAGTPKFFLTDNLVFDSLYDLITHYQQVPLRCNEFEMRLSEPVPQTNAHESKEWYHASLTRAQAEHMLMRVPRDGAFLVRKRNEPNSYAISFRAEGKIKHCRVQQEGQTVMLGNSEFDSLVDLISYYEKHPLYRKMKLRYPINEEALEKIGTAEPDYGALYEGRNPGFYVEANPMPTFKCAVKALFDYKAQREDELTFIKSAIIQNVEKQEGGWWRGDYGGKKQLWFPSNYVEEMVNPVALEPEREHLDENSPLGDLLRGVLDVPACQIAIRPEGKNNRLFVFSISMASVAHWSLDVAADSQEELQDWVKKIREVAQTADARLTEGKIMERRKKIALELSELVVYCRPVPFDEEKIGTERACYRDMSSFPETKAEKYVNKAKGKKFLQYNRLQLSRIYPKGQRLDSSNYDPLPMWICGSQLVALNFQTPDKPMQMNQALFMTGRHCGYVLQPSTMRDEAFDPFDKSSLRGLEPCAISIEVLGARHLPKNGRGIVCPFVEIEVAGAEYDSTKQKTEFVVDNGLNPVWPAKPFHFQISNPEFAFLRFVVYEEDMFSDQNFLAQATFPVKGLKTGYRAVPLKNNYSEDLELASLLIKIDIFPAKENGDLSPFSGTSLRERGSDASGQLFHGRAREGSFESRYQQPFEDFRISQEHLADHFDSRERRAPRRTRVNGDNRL

Compound	IC50 (cells)	IC50 (Exodeoxyribonuclease V)	IC50 [1]
COC(CNC(=O)c1ccc2c3c(onc13)-c1ccccc1C2=O)OC	41.5 µM (active)		
Cc1ccc2nc(/C(C#N)=C\c3ccc([N+](=O)[O-])o3)[nH]c2c1		> 119 µM (inactive)	
O=C(O)c1ccc(NC2=C/C(=N/S(=O)(=O)c3ccccc3)c3ccccc3C2=O)cc1			45.5 µM (inactive)
Nc1ccc2c(c1)C(=O)C(=O)c1ccccc1-2	7.1 µM (active)		5.14 µM (active)
CCCC(=O)NC(c1ccccc1OC)c1ccc2cccnc2c1O (stereo unspecified)		> 119 µM (inactive)	
